Laboratory results as given in PMC5104426, “Screening a Phage Display Library for Two Novel OmpU-Binding Peptides with Adhesion Antagonistic Activity against Vibrio mimicus” (PLoS ONE, 2016).

Tests used:
[1] = test system: rOmpU fusion protein adhesion to EPC cells; assay: Fluorescence-based adhesion assay: rOmpU protein adhesion to EPC cells; format: cell-based, Vibrio mimicus; conditions: 500 μg/mL peptide mixed with equal volume of 500 μg/mL rOmpU, 1 h 28°C, then 1 h on fixed EPC cells; anti-OmpU/FITC immunofluorescence; triplicate
Protocol: Synthetic OmpU-binding peptides were measure for their ability to antagonize OmpU protein adhesion to EPC cells by fluorescence-based adhesion assay. Briefly, EPC cells (1 × 10^6 cells/mL) were seeded in 24-well cell plate containing coverslip (Corning, NY, USA) and cultured to 80% confluence. The cells were gently washed 3 times with PBS and fixed with 4% paraformaldehyde at room temperature for 15 min. After 3 washes with PBS, cells were permeabilized with 0.5% Triton X-100 (500 μL/well) for 15 min. The cells were then washed 3 times with PBS and blocked with 2% BSA for 30 min. Subsequently, 500 μg/mL of each OmpU-binding peptide or irrelevant control peptide (used as negative control) solution were respectively mixed with an equal volume of 500 μg/mL rOmpU fusion protein, and the mixture was incubated for 1 h at 28°C and added to each well. The plates were incubated for 1 h at 28°C. After 3 washes, purified rabbit anti-OmpU antibody (prepared in our previous studies) at a dilution of 1:200 in PBS was added to each well and incubated for 1 h at 28°C, followed by 3 washes in PBS. A 1:100 dilution of FITC (fluorescein isothiocyanate)-labeled goat anti-rabbit IgG (Jackson ImmunoResearch Laboratories, Inc., USA) was added to each well and incubated in the dark for 1 h. After 3 washes in PBS, 4,6-Diamidino-2-phenylindole dihydrochloride (DAPI; Ziyi Reagent Co., Shanghai, China) was used to stain the nucleus, and the coverslips were observed under a fluorescence microscope. Each experiment was performed in triplicate, each sample being tested in three wells.

[2] = test system: V. mimicus 04–14 isolate adhesion to EPC cells; assay: Peptide adhesion inhibition test: V. mimicus adhesion to EPC cells; format: cell-based, Vibrio mimicus; conditions: 500 μg/mL peptide mixed with equal volume of V. mimicus 04–14 (2 × 10^7 CFU/mL), 1 h 28°C, then 1 h on EPC cells, crystal violet, 30 cells counted, mean ± SD, triplicate
Protocol: When EPC cells grown in 24-well plate containing coverslips formed a confluent monolayer, the medium was changed to RPMI-1640 medium without serum and antibiotics for 2 h. Subsequently, 500 μg/mL of each OmpU-binding peptide or unrelated control peptide solution were respectively mixed with an equal volume of V. mimicus isolate 04–14 suspension (2 × 10^7 CFU/mL) and incubated for 1 h at 28°C. The mixture was added to each well, and then the plates were incubated for 1 h at 28°C. After 3 times washes, EPC cells were fixed with cooled methanol for 10 min, stained with crystal violet and examined under a light microscope at a magnification of ×1,000. Thirty cells were randomly selected to count the number of adhering bacterial per slide. Each experiment was performed in triplicate, with each sample being repeated in 3 cell wells.

Sequence: TGYICDEMFCKL [P3]
- green fluorescence on the surface of EPC cells (surface-retained rOmpU) [1]: Obvious green fluorescence
- average number of adhesion around each cell [2]: 20.2 ± 0.5
